Experiments:
COX-II = target: T1, COX-II (Homo sapiens, UniProt P35354); assay: Human Enzyme Assay, recombinant COX-II (PGE2 ELISA); type: biochemical
T1 construct: made in house; host or cells: SF9 insect cells, recombinant baculovirus (pVL1393); coding fragment from Cayman Chemical
T1 sequence (P35354 18-604): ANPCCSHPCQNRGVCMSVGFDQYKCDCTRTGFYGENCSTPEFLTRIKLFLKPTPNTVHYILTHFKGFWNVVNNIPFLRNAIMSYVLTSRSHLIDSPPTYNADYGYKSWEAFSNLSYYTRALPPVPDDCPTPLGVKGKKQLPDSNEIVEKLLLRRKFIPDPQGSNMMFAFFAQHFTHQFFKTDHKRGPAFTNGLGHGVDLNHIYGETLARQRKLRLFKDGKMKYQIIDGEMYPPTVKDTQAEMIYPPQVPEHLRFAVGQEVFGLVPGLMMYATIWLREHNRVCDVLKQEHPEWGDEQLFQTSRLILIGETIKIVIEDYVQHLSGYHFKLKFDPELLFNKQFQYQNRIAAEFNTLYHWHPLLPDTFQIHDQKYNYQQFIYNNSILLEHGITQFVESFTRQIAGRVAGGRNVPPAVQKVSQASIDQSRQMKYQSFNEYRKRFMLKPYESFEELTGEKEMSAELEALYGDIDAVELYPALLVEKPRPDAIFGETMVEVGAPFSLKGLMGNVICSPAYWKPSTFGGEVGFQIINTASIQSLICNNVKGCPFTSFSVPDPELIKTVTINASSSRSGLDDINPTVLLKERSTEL
Description: (§1) The compounds of the invention are evaluated with respect to COX-I and COX-II activity in vitro using an enzyme based assay according to the following assay procedure.
(§2) (a) Preparation of Recombinant COX Baculoviruses
(§3) A 2.0 kb fragment containing the coding region for either human or murine COX-I (Caymen Chemical, Ann Arbor, Mich.), or human or murine COX-II (Caymen Chemical, Ann Arbor, Mich.), was cloned into a BamH1 site of the baculovirus transfer vector pVL1393 (Invitrogen, Palo Alto, Calif.) to generate a baculovirus transfer vector. Recombinant baculoviruses were isolated by transfecting 4 μg of baculovirus transfer vector DNA into SF9 cells (2×10e8) (Invitrogen, Palo Alto, Calif.) along with 200 ng of linearized bacium by the phosphate method. See M. D. Summers et al., "A Manual of Methods for Baculovirus Vectors and Insect Cell Culture Procedure," TEXAS AGRICULTURE EXPERIMENTAL STATION BULLETIN, No. 1555 (1987), which is incorporated herein by reference. Recombinant viruses were purified by three rounds of plaque purification, and high titer (10e7-10e8 pfu/ml) stocks of virus were prepared. For large scale production, SF9 insect cells (Invitrogen, Palo Alto, Calif.) were infected in 10 liter fermentors (0.5×10^6 /ml) with the recombinant baculovirus stock, such that the multiplicity of infection was 0.1. After 72 hours, the cells were centrifuged and the cell pellet was homogenized in Tris/Sucrose (50 mM: 25%, pH 8.0) containing 1% CHAPS. The homogenate was centrifuged at 10,000×G for 30 minutes, and the resultant supernatant was stored at -80° C. before being assayed for COX activity.
(§4) b. Assay for COX-I and COX-II activity:
(§5) COX activity was assayed as PGE2 formed/μg protein/time using an ELISA (Caymen Chemical, Ann Arbor, Mich.) to detect the prostaglandin E2 released. CHAPS-solubilized insect cell membranes containing the appropriate COX enzyme were incubated in a potassium phosphate buffer (50 mM, pH 8.0) containing phenol (0.5 mM), and heme (1 μM) with the addition of arachidonic acid (10 μM). Compounds of the present invention were pre-incubated with the enzyme for 10-20 minutes prior to the addition of the COX-I and COX-II enzyme substrate arachidonic acid (10 μM). Any reaction between the arachidonic acid and the enzyme was stopped after ten minutes at 37° C./room temperature by transferring 40 μl of reaction mix into […] ELISA buffer and 25 μM indomethacin. The PGE2 formed was measured by standard ELISA technology (Cayman Chemical, Ann Arbor, Mich.).
(§6) The results for this assay, as well as for the next assay (COX-II Cell Fibroblast Assay) are expressed in terms of COX-I or II activity as an IC50 value (50% inhibitory concentration), as defined as the amount of prostaglandin E2 (PGE2) formed per protein per time in response to the enzyme substrate arachidonic acid.

COX-I = target: T2, COX-I (Homo sapiens, UniProt P23219); assay: Human Enzyme Assay, recombinant COX-I (PGE2 ELISA); type: biochemical
T2 construct: made in house; host or cells: SF9 insect cells, recombinant baculovirus (pVL1393); coding fragment from Cayman Chemical
T2 sequence (P23219 24-599): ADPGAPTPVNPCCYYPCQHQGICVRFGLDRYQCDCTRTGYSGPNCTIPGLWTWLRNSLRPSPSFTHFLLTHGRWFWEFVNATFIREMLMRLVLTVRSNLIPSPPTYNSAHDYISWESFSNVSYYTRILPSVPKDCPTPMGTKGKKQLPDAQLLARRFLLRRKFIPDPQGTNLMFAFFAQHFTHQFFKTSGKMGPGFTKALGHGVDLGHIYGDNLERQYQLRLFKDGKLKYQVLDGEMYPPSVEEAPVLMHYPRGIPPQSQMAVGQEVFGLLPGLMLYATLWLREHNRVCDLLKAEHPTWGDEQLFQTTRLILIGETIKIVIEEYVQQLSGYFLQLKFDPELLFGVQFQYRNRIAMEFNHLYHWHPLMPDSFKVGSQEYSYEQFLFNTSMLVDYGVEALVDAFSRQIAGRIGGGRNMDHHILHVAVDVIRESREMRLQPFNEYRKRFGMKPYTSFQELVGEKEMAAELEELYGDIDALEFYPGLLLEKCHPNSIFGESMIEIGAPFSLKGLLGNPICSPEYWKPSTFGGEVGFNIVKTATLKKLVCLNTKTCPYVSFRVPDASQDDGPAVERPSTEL
Description: as §1, §2, §3, §4, §5, §6

cellular COX-II = target: T3, cellular COX-II (Homo sapiens, UniProt P35354); assay: Cellular COX-II Assay (Cell Fibroblast Assay), IL-1 stimulated human fetal dermal fibroblasts, PGE2; type: cell-based; details: IL-1 beta stimulated human fetal dermal fibroblasts
T3 construct: stimulated human fetal dermal fibroblasts (HFDF, derived from primary cell cultures); endogenous in cells; host or cells: human fetal dermal fibroblasts (HFDF), primary, stimulated with IL-1 beta
T3 sequence (P35354 18-604): T1 sequence (P35354 18-604)
Description: The compounds of the invention are evaluated with respect to the inhibition of cellular COX-II in vitro according to the following Cellular COX-II Assay (Cell Fibroblast Assay).
Cellular COX-II Assay (Cell Fibroblast Assay)
Inhibition of cellular COX-II by test compounds is determined using stimulated human fetal dermal fibroblasts (HFDF, derived from primary cell cultures). Fibroblasts are cultured in microtiter wells at 1.5×10^4 cells/well in Dulbecco's Modified Eagle's Media (DMEM)(Gibco/BRL, Gaithersburg, Md. Sigma Chemical Co., St. Louis, Mo.) containing 4500 mg glucose/L, 100 units penicillin G/ml and 0.1 mg streptomycin/ml, 4 mM L-glutamine, 25 mM Hepes and 10% Fetal Bovine Serum (Gibco/BRL, Gaithersburg, Md. Bioproducts For Science, Inc., Indianapolis,Ind.). Following a 3-day incubation at 37° C., the culture media is removed by aspiration using low vacuum, and the cells are stimulated overnight with medium containing human recombinant IL-1 (interleukin-1) beta (1 ng/ml)(Cistron, Pine Brook, N.J.). The next day, the fibroblasts are washed with Phosphate Buffered Saline, and 185 μl of DMEM is added to each well. The cells are placed in a 37° C. incubator for 15 minutes. Compounds are then added to the cells using seven half-log dilutions in duplicate determinations. Cells are incubated with test compounds at 37° C. for 30 minutes. The COX-II substrate arachidonic acid (20 μM; Nu-Chek-Prep Inc., Elysian, Minn.) is then added to the cell cultures and the plates are incubated for 10 minutes at 37° C. Supernatants are collected and Prostaglandin E2 (PGE2) production is measured by an enzyme-linked immunosorbent assay (ELISA; antibodies produced by Cayman Chemical Company, Ann Arbor, Mich.). […] PG,60
The following is a description of how the activities of the compounds of the present invention may be determined.
A run of this assay consists of one (or more) plates, each containing, along with the standard (in row A), (1) two wells of unstimulated material (in col. 12), (2) five wells of stimulated material (in col. 12), (3) seven wells (one per concentration) for indomethacin (in col. 11), and (4) two wells at each of seven concentrations for five test compounds, one of which is a repeat of indomethacin. The response (ng/ml Eicosanoid) is estimated from the Standard curve and is highest at low concentrations and decreases as the concentration increases. If the response is plotted on the y-axis and the log of the concentration is plotted on the x-axis, the dose-response pattern for these assays is typically a symmetrical, sigmoidal shaped curve. If a full range of concentrations is used, the complete sigmoidal curve may be seen, starting with an upper asymptote, falling at some degree of steepness, and then leveling off at a lower asymptote. The IC50 is defined as the concentration corresponding to a response midway between the upper and lower plateaus. A theoretic "dose-response" model is used to estimate the IC50.
The procedure described below was used to define the minimum and maximum responses for the compounds on a plate.
The procedure uses information for indomethacin and the rest of the plate in defining the minimum and maximum response. The justification for doing this is as follows. Enough runs have been done with indomethacin to determine and use a range of concentrations such that the response to the lowest concentrations is on the upper plateau of the sigmoidal curve and the response to the highest concentrations is on the lower plateau of the sigmoidal curve. For the other compounds, if a response is measured which is less than the response for the unstimulated wells, then this response may be considered to be another estimate of a minimal response. Likewise, if a response is measured which is greater than the response for the stimulated wells, then this response may be considered to be another estimate of a maximal response. Based on this reasoning, the minimum is estimated as follows: […]

Row | Structure (SMILES) | IC50 (COX-II) [nM] | IC50 (COX-I) [nM] | IC50 (cellular COX-II) [nM]
1 | CC(C)(C)c1ccc(O[C@@H]2CCC[C@H]2OCC(=O)O)c(C(C)(C)C)c1 (relative stereo) [Example 101, trans-2-[[2-[2,4-bis(1,1-dimethylethyl)phenoxy]cyclopentyl]oxy]acetic acid] | > 100000 | > 100000 | 840
2 | CC(C)(C)c1cc(S[C@H]2CCC[C@H]2OCC(=O)O)cc(C(C)(C)C)c1 (single isomer, unassigned) [Example 84, (+)cis-2-[[2-[[3,5-bis(1,1-dimethylethyl)phenyl]thio]cyclopentyl]oxy]aceticacid] | 3700 | > 100000 | 420
3 | CC(C)(C)c1cc(S[C@@H]2CCCC[C@H]2OCC(=O)O)cc(C(C)(C)C)c1 (single isomer, unassigned) [Example 89, (-)trans-2-[[2-[[3,5-bis(1,1-dimethylethyl)phenyl]thio]cyclohexyl]oxy]acetic acid] | 3400 | > 100000 | 576
4 | CC(C)(C)c1ccc(S[C@@H]2CCC[C@H]2OCC(=O)O)c(C(C)(C)C)c1 (single isomer, unassigned) [Example 93, (-)trans-2-[[2-[[2,4-bis(1,1-dimethylethyl)phenyl]thio]cyclopentyl]oxy]acetic acid] | 7660 | > 100000 | 334
5 | CC(C)(C)c1cc(S[C@@H]2CCC[C@H]2OCC(=O)O)cc(C(C)(C)C)c1 (relative stereo) [Example 76, (±)trans-2-[[2-[[3,5-bis(1,1-dimethylethyl)phenyl]thio]cyclopentyl]oxy]acetic acid] | > 100000 | > 100000 | 5590
6 | CC(C)(C)c1ccc(S[C@@H]2CCC[C@H]2OCC(=O)O)c(C(C)(C)C)c1 (single isomer, unassigned) [Example 92, (+)trans-2-[[2-[[2,4-bis(1,1-dimethylethyl)phenyl]thio]cyclopentyl]oxy]acetic acid] | 3880 | > 100000 | 246
7 | CC(C)(C)c1cc(S[C@H]2CCC[C@H]2OCC(=O)O)cc(C(C)(C)C)c1 (single isomer, unassigned) [Example 85, (-)cis-2-[[2-[[3,5-bis(1,1-dimethylethyl)phenyl]thio]cyclopentyl]oxy]aceticacid] | 2500 |  | 163
8 | CC(C)(C)c1cc(S[C@H]2CCC[C@H]2OCC(=O)O)cc(C(C)(C)C)c1 (relative stereo) [Example 77] | 5160 | > 100000 | 170
9 | CC(C)(C)c1ccc(S[C@@H]2CCC[C@H]2OCC(=O)O)c(C(C)(C)C)c1 (racemic) [Example 81, (±)trans-2-[[2-[[2,4-bis(1,1-dimethylethyl)phenyl]-thio]cyclopentyl]oxy]acetic acid] | 1430 | 94600 | 438
10 | CC(C)(C)c1ccc(S[C@H]2CCC[C@H]2OCC(=O)O)c(C(C)(C)C)c1 (single isomer, unassigned) [Example 97, (-)cis-2-[[2-[[2,4-bis(1,1-dimethylethyl)phenyl]thio]cyclopentyl]oxy]aceticacid] | 2000 | 92100 | 227
11 | CC(C)(C)c1ccc(S[C@H]2CCC[C@H]2OCC(=O)O)c(C(C)(C)C)c1 (racemic) [Example 80, (±)cis-2-[[2-[[2,4-bis(1,1-dimethylethyl)phenyl]thio]cyclopentyl]oxy]acetic acid] | 937 | 28500 | 602
